Measured values reported in patent US20260062422A1 (Halda Therapeutics OpCo, Inc., priority 2022, published 2026).

Tests used:
VCaP cells = experiment: Cellular growth inhibition assay for VCaP cells, CellTiter-Glo; assay type: cell-based, human; settings: 72 hours treatment, CellTiter-Glo 2.0
Outline: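 GI50 values come from four-parameter curve fits of luminescence data normalized to a zero baseline. Compound, in medium with 0.5% DMSO, was added one day after plating and left for 72 h before CellTiter-Glo 2.0 addition.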

[1] = test system: T-Rex 293 cell line SC3 cells having increased expression of androgen receptor protein due to exposure to doxycycline; experiment: Cellular growth inhibition, T-Rex 293 SC3 cells with doxycycline (androgen receptor induced), CellTiter-Glo; assay type: cell-based; settings: T-Rex 293 SC3 cells with 10 ng/mL doxycycline (increased androgen receptor expression)
Outline: (§1)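 SC3 is a T-Rex 293 clone stably transfected with wild-type androgen receptor in pcDNA4/TO, inducible by 10 ng/mL doxycycline. Cells were grown in phenol red-free DMEM with 10% charcoal-dextran FBS, with or without doxycycline, dosed 24 h after seeding (0.5% DMSO) for 72 h. Viability was read by CellTiter-Glo 2.0 luminescence and GI50 obtained from four-parameter fits.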

T47D cells = experiment: Cellular growth inhibition assay for T47D cells, CellTiter-Glo; assay type: cell-based, human; settings: 72 hours treatment, CellTiter-Glo 2.0 cell viability
Outline: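 Luminescence from CellTiter-Glo 2.0 after 72 h of compound exposure gives the viability signal. Cells grew in insulin-supplemented (0.2 units/mL) DMEM with 10% FBS and were treated one day after seeding at 0.5% DMSO. GI50 values come from four-parameter nonlinear regression.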

[2] = test system: T-Rex 293 cell line SC3 cells lacking increased expression of androgen receptor protein; experiment: Cellular growth inhibition, T-Rex 293 SC3 cells without doxycycline, CellTiter-Glo; assay type: cell-based; settings: T-Rex 293 SC3 cells not exposed to doxycycline, CellTiter-Glo 2.0
Outline: as §1

Row | Compound | GI50 (VCaP cells; Homo sapiens, VCaP, 72 h) [nM] | GI50 ([1]; 72 h) [nM] | GI50 (T47D cells; Homo sapiens, T47D, 72 h) [nM] | GI50 ([2]; 72 h) [nM] | GI50 (VCaP cells) [nM] | GI50 ([1]; 72 hours) [nM] | GI50 (T47D cells) [nM] | GI50 ([2]; 72 hours) [nM]
1 | Cc1sc2c(c1C)C(c1ccc([C@H]3C[C@H](C4CCN(c5ncc(C(=O)N[C@H]6C(C)(C)[C@H](Oc7ccc(C#N)c(Cl)c7)C6(C)C)cn5)CC4)C3)cc1)=N[C@@H](Cc1ncco1)c1nnc(C)n1-2 [Compound I-399] | 500 to 1500 | < 500 | < 500 | > 3000 | – | – | – | –
2 | Cc1sc2c(c1C)C(c1ccc([C@H]3C[C@H](C[C@@H]4CCCN(c5ncc(C(=O)N[C@H]6C(C)(C)[C@H](Oc7ccc(C#N)c(Cl)c7)C6(C)C)cn5)C4)C3)cc1)=N[C@@H](Cc1ncco1)c1nnc(C)n1-2 [Compound I-403] | – | – | – | – | > 3000 | < 500 | < 500 | > 3000
3 | Cc1sc2c(c1C)C(c1ccc(-c3cc(C4CCN(c5ncc(C(=O)N[C@H]6C(C)(C)[C@H](Oc7ccc(C#N)c(Cl)c7)C6(C)C)cn5)CC4)cs3)cc1)=N[C@@H](Cc1ncco1)c1nnc(C)n1-2 [Compound I-480] | < 500 | < 500 | > 3000 | > 3000 | – | – | – | –
4 | Cc1sc2c(c1C)C(c1ccc(CC[C@@H]3CC[C@]4(CCCN(c5ncc(C(=O)N[C@H]6C(C)(C)[C@H](Oc7ccc(C#N)c(Cl)c7)C6(C)C)cn5)C4)C3)cc1)=N[C@@H](Cc1ncco1)c1nnc(C)n1-2 [Compound I-250] | < 500 | < 500 | < 500 | > 3000 | – | – | – | –
5 | Cc1sc2c(c1C)C(c1ccc(N3CCN(C4CN(c5ncc(C(=O)NC6C(C)(C)C(Oc7ccc(C#N)c(Cl)c7)C6(C)C)cn5)C4)CC3)cc1)=N[C@@H](CC(=O)OC(C)(C)C)c1nnc(C)n1-2 (stereo partly drawn) [Compound I-236, tert-butyl 2-[(9S)-7-[4-[4-[1-[5-[[3-(3-chloro-4-cyano-phenoxy)-2,2,4,4-tetramethyl-cyclobutyl]carbamoyl]pyrimidin-2-yl]azetidin-3-yl]piperazin-1-yl]phenyl]-4,5,13-trimethyl-3-thia-1,8,11,12-tetrazatricyclo[8.3.0.02,6]trideca-2(6),4,7,10,12-pentaen-9-yl]acetate] | < 500 | < 500 | < 500 | 500 to 1500 | – | – | – | –
6 | Cc1sc2c(c1C)C(c1ccc(CC3CN(C4CCN(c5ncc(C(=O)N[C@H]6C(C)(C)[C@H](Oc7ccc(C#N)c(Cl)c7)C6(C)C)cn5)C4)C3)cc1)=N[C@@H](Cc1ncco1)c1nnc(C)n1-2 (stereo partly shown) [Compound I-154] | < 500 | < 500 | < 500 | < 500 | – | – | – | –
7 | Cc1sc2c(c1C)C(c1ccc(CNC(=O)NCc3ncc(C(=O)N[C@H]4C(C)(C)[C@H](Oc5ccc(C#N)c(Cl)c5)C4(C)C)cn3)cc1)=N[C@@H](Cc1ncco1)c1nnc(C)n1-2 [Compound I-326] | 500 to 1500 | 500 to 1500 | 1500 to 3000 | > 3000 | – | – | – | –
8 | Cc1sc2c(c1C)C(c1ccc(-c3ccsc3OC3CCN(c4ncc(C(=O)N[C@H]5C(C)(C)[C@H](Oc6ccc(C#N)c(Cl)c6)C5(C)C)cn4)CC3)cc1)=N[C@@H](Cc1ncco1)c1nnc(C)n1-2 [Compound I-444] | < 500 | < 500 | > 3000 | > 3000 | – | – | – | –
9 | CNc1ccc2c(n1)C(c1ccc(OC3CC4(CCN(c5ncc(C(=O)N[C@H]6C(C)(C)[C@H](Oc7ccc(C#N)c(Cl)c7)C6(C)C)cn5)CC4)C3)cc1)=NCc1onc(C)c1-2 [Compound I-232] | < 500 | < 500 | < 500 | > 3000 | – | – | – | –
10 | Cc1sc2c(c1C)C(c1ccc([C@H]3C[C@H]([C@H]4CCN(c5ncc(C(=O)N[C@H]6C(C)(C)[C@H](Oc7ccc(C#N)c(Cl)c7)C6(C)C)cn5)C4)C3)cc1)=N[C@@H](Cc1ncco1)c1nnc(C)n1-2 [Compound I-416] | < 500 | < 500 | < 500 | > 3000 | – | – | – | –
11 | Cc1sc2c(c1C)C(c1ccc(N3CCN(C(=O)c4ncc(C(=O)N[C@H]5C(C)(C)[C@H](Oc6ccc(C#N)c(Cl)c6)C5(C)C)cn4)CC3)cc1)=N[C@H](Cc1ncco1)c1nnc(C)n1-2 [Compound I-341] | < 500 | 500 to 1500 | 500 to 1500 | 500 to 1500 | – | – | – | –
12 | Cc1sc2c(c1C)C(c1ccc(N3CCC[C@H](C(=O)NCc4ncc(C(=O)N[C@H]5C(C)(C)[C@H](Oc6ccc(C#N)c(Cl)c6)C5(C)C)cn4)C3)cc1)=N[C@@H](Cc1ncco1)c1nnc(C)n1-2 [Compound I-331] | – | – | – | – | < 500 | < 500 | 500 to 1500 | 500 to 1500
13 | Cc1sc2c(c1C)C(c1ccc(N3CC4(C3)CC3(CCN(c5ncc(C(=O)N[C@H]6C(C)(C)[C@H](Oc7ccc(C#N)c(Cl)c7)C6(C)C)cn5)CC3)C4)cc1)=N[C@@H](Cc1ncco1)c1nnc(C)n1-2 [Compound I-388] | < 500 | < 500 | < 500 | > 3000 | – | – | – | –
14 | Cc1sc2c(c1C)C(c1ccc(CC3CCC4(C3)CN(c3ncc(C(=O)N[C@H]5C(C)(C)[C@H](Oc6ccc(C#N)c(Cl)c6)C5(C)C)cn3)CCO4)cc1)=N[C@@H](C)c1nnc(C)n1-2 (stereo partly shown) [Compound I-619] | < 500 | < 500 | < 500 | 500 to 1500 | – | – | – | –
15 | Cc1sc2c(c1C)C(c1ccc(CN3CC4(CCN(c5ncc(C(=O)N[C@H]6C(C)(C)[C@H](Oc7ccc(C#N)c(Cl)c7)C6(C)C)cn5)CC4)C3)cc1)=N[C@@H](Cc1ncco1)c1nnc(C)n1-2 [Compound I-141] | < 500 | < 500 | > 3000 | 500 to 1500 | – | – | – | –
16 | Cc1sc2c(c1C)C(c1ccc(O[C@H]3C[C@@]4(CCCN(c5ncc(C(=O)N[C@H]6C(C)(C)[C@H](Oc7ccc(C#N)c(Cl)c7)C6(C)C)cn5)C4)C3)cc1)=N[C@@H](Cc1ncco1)c1nnc(C)n1-2 [Compound I-193] | 500 to 1500 | < 500 | < 500 | 500 to 1500 | – | – | – | –
17 | Cc1sc2c(c1C)C(c1ccc(C3CC(N4CCN(c5ncc(C(=O)N[C@H]6C(C)(C)[C@H](Oc7ccc(C#N)c(Cl)c7)C6(C)C)cn5)CC4)C3)cc1)=N[C@@H](Cc1ncco1)c1nnc(C)n1-2 (stereo partly shown) [Compound I-475] | < 500 | < 500 | < 500 | 500 to 1500 | – | – | – | –
18 | Cc1sc2c(c1C)C(c1ccc(OC[C@H]3CC[C@@]4(CCCN(c5ncc(C(=O)N[C@H]6C(C)(C)[C@H](Oc7ccc(C#N)c(Cl)c7)C6(C)C)cn5)C4)C3)cc1)=N[C@@H](Cc1ncco1)c1nnc(C)n1-2 [Compound I-203] | < 500 | < 500 | < 500 | > 3000 | – | – | – | –
19 | Cc1sc2c(c1C)C(c1ccc(CCN3CC4(CCCN(c5ncc(C(=O)N[C@H]6C(C)(C)[C@H](Oc7ccc(C#N)c(Cl)c7)C6(C)C)cn5)C4)C3)cc1)=N[C@@H](Cc1ncco1)c1nnc(C)n1-2 [Compound I-272] | < 500 | < 500 | < 500 | 500 to 1500 | – | – | – | –
20 | Cc1sc2c(c1C)C(c1ccc(-c3csnc3OC3CCN(c4ncc(C(=O)N[C@H]5C(C)(C)[C@H](Oc6ccc(C#N)c(Cl)c6)C5(C)C)cn4)CC3)cc1)=N[C@@H](Cc1ncco1)c1nnc(C)n1-2 [Compound I-431] | < 500 | < 500 | > 3000 | > 3000 | – | – | – | –
21 | Cc1sc2c(c1C)C(c1ccc(CN3CCN(C(=O)c4ncc(C(=O)N[C@H]5C(C)(C)[C@H](Oc6ccc(C#N)c(Cl)c6)C5(C)C)cn4)CC3)cc1)=N[C@@H](Cc1ncco1)c1nnc(C)n1-2 [Compound I-290] | < 500 | < 500 | 1500 to 3000 | 500 to 1500 | – | – | – | –
22 | Cc1sc2c(c1C)C(c1ccc(CC[C@H]3C[C@]4(CCCN(c5ncc(C(=O)N[C@H]6C(C)(C)[C@H](Oc7ccc(C#N)c(Cl)c7)C6(C)C)cn5)C4)C3)cc1)=N[C@@H](Cc1ncco1)c1nnc(C)n1-2 [Compound I-239] | > 3000 | > 3000 | > 3000 | > 3000 | – | – | – | –
